Experiments:
[1] = molecular target: GST-Bcl-XL (Homo sapiens, UniProt Q07817); assay: TR-FRET binding assay, GST-Bcl-XL with F-Bak peptide probe; conditions: TR-FRET Binding Affinity
Description: (§1) Tb-anti-GST antibody was purchased from Invitrogen (Catalog No. PV4216).
(§2) Representative compounds were serially diluted in dimethyl sulfoxide (DMSO) starting at 50 μM (2× starting concentration; 10% DMSO) and 10 μL were transferred into a 384-well plate.
(§3) The samples were then mixed on a shaker for 1 minute and incubated for an additional 3 hours at room temperature. For each assay, the probe/antibody and protein/probe/antibody were included on each assay plate as negative and positive controls, respectively. Fluorescence was measured on the ENVISION plate reader (Perkin Elmer) using a 340/35 nm excitation filter and 520/525 (F-Bak peptide) and 495/510 nm (Tb-labeled […] antibody) emission filters.
(§4) The inhibition constant (Ki) is the dissociation constant of an enzyme-inhibitor complex or a protein/small molecule complex, wherein the small molecule is inhibiting binding of one protein to another protein or peptide. […] Inhibition constants were determined using Wang's equation (Wang Z-X., An Exact Mathematical Expression For Describing Competitive Binding Of Two Different Ligands To A Protein Molecule. FEBS Lett. 1995, 360:111-4).

[2] = molecular target: GST-Bcl-2 (Homo sapiens, UniProt P10415); assay: TR-FRET binding assay, GST-Bcl-2 with F-Bak peptide probe; conditions: for Ki: TR-FRET Binding Affinity
Sequence of GST-Bcl-2 (P10415 whole entry): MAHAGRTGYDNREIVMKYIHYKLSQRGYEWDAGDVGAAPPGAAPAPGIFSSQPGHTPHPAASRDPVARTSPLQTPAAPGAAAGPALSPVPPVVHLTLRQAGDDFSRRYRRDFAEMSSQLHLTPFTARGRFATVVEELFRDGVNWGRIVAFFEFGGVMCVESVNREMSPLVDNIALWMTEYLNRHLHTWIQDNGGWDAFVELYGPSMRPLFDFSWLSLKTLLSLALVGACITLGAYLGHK
Description: as §1, §2, §3, §4

[3] = GST-Bcl-XL, F-Bak peptide probe
[4] = ratio of TR-FRET Ki values, Bcl-XL over Bcl-2
[5] = TR-FRET, Bcl-XL Ki divided by Bcl-2 Ki

Sequence of GST-Bcl-XL (Q07817 whole entry): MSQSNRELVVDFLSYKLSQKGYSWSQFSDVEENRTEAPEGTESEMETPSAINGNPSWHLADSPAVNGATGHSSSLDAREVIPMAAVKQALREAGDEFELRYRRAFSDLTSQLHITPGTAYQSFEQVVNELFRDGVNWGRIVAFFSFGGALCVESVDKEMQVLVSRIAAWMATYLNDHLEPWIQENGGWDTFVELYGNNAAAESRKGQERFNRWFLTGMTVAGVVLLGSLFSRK

## CN1CCC(Nc2ccc(S(=O)(=O)NC(=O)c3ccc(N4CCN(CC5=C(c6ccc(Cl)cc6)CC(C)(C)CC5)CC4)cc3Oc3cccc4[nH]cnc34)cc2[N+](=O)[O-])CC1 [Example 418, 2-(1H-benzimidazol-4-yloxy)-4-(4-{[2-(4-chlorophenyl)-4,4-dimethylcyclohex-1-en-1-yl]methyl}piperazin-1-yl)-N-({4-[(1-methylpiperidin-4-yl)amino]-3-nitrophenyl}sulfonyl)benzamide]
[1]; [3]
  Ki: 1.57 nM
[2]; GST-Bcl-2, F-Bak peptide probe
  Ki: 0.004 nM
[2]; [4]
  Binding selectivity ratio (Bcl-XL Ki/Bcl-2 Ki): 404.7

## O=C(NS(=O)(=O)c1ccc(N2C(=O)C3CCC3C2=O)cc1)c1ccc(N2CCN(Cc3ccccc3-c3ccc(Cl)cc3)CC2)cc1Oc1ccccc1 (stereo not drawn) [Example 28, 4-{4-[(4′-chloro-1,1′-biphenyl-2-yl)methyl]piperazin-1-yl}-N-{[4-(2,4-dioxo-3-azabicyclo[3.2.0]hept-3-yl)phenyl]sulfonyl}-2-phenoxybenzamide]
[1]; [3]
  Ki: > 660 nM
[2]; GST-Bcl-2, F-Bak peptide probe
  Ki: 33.7 nM

## CC1(C)CCC(CN2CCN(c3ccc(C(=O)NS(=O)(=O)c4cnc(OC[C@H]5CC[C@H](C(N)=O)CC5)c(Cl)c4)c(Oc4cccc5[nH]ncc45)c3)CC2)=C(c2ccc(Cl)cc2)C1 [Example 483, N-({6-[(trans-4-carbamoylcyclohexyl)methoxy]-5-chloropyridin-3-yl}sulfonyl)-4-(4-{[2-(4-chlorophenyl)-4,4-dimethylcyclohex-1-en-1-yl]methyl}piperazin-1-yl)-2-(1H-indazol-4-yloxy)benzamide]
[1]
  Ki: 5.63 nM
[2]
  Ki: < 0.01 nM
[2]; [5]
  Binding selectivity ratio (Bcl-XL Ki/Bcl-2 Ki): >563.0

## CC1(C)CCC(CN2CCN(c3ccc(C(=O)NS(=O)(=O)c4ccc(N[C@@H]5CCN(CC#N)C5)c([N+](=O)[O-])c4)c(Oc4cccc5[nH]cnc45)c3)CC2)=C(c2ccc(Cl)cc2)C1 [Example 428, 2-(1H-benzimidazol-4-yloxy)-4-(4-{[2-(4-chlorophenyl)-4,4-dimethylcyclohex-1-en-1-yl]methyl}piperazin-1-yl)-N-[(4-{[(3R)-1-(cyanomethyl)pyrrolidin-3-yl]amino}-3-nitrophenyl)sulfonyl]benzamide]
[1]; [3]
  Ki: 15.6 nM
[2]; GST-Bcl-2, F-Bak peptide probe
  Ki: 0.003 nM
[2]; [4]
  Binding selectivity ratio (Bcl-XL Ki/Bcl-2 Ki): 5832.2

## CC1(C)CCC(CN2CCN(c3ccc(C(=O)NS(=O)(=O)c4cnc(OCCN5CCOCC5)c(C#N)c4)c(Oc4cccc5[nH]ccc45)c3)CC2)=C(c2ccc(Cl)cc2)C1 [Example 392, 4-(4-{[2-(4-chlorophenyl)-4,4-dimethylcyclohex-1-en-1-yl]methyl}piperazin-1-yl)-N-{[5-cyano-6-(2-morpholin-4-ylethoxy)pyridin-3-yl]sulfonyl}-2-(1H-indol-4-yloxy)benzamide]
[1]; [3]
  Ki: 122 nM
[2]; GST-Bcl-2, F-Bak peptide probe
  Ki: 0.38 nM
[2]; [4]
  Binding selectivity ratio (Bcl-XL Ki/Bcl-2 Ki): 320.2

## CC1(C)CC(c2ccc(Cl)cc2)=C(CN2CCN(c3ccc(C(=O)NS(=O)(=O)c4cnc(OCC5(F)CCOCC5)c(Cl)c4)c(Oc4cccc5[nH]ncc45)c3)CC2)CO1 [Example 465, N-({5-chloro-6-[(4-fluorotetrahydro-2H-pyran-4-yl)methoxy]pyridin-3-yl}sulfonyl)-4-(4-{[4-(4-chlorophenyl)-6,6-dimethyl-5,6-dihydro-2H-pyran-3-yl]methyl}piperazin-1-yl)-2-(1H-indazol-4-yloxy)benzamide]
[1]
  Ki: 37.2 nM
[2]
  Ki: 0.025 nM
[2]; [5]
  Binding selectivity ratio (Bcl-XL Ki/Bcl-2 Ki): 1472.4

## CN(C)CC(=O)N1CCO[C@@H](COc2ncc(S(=O)(=O)NC(=O)c3ccc(N4CCN(CC5=C(c6ccc(Cl)cc6)CC(C)(C)CC5)CC4)cc3Oc3cccc4[nH]ncc34)cc2Cl)C1 [Example 426, N-[(5-chloro-6-{[(2R)-4-(N,N-dimethylglycyl)morpholin-2-yl]methoxy}pyridin-3-yl)sulfonyl]-4-(4-{[2-(4-chlorophenyl)-4,4-dimethylcyclohex-1-en-1-yl]methyl}piperazin-1-yl)-2-(1H-indazol-4-yloxy)benzamide]
[1]; [3]
  Ki: 4.31 nM
[2]; GST-Bcl-2, F-Bak peptide probe
  Ki: 0.007 nM
[2]; [4]
  Binding selectivity ratio (Bcl-XL Ki/Bcl-2 Ki): 604.2

## CC1(C)CCC(CN2CCN(c3ccc(C(=O)NS(=O)(=O)c4ccc(OCC5(F)CCOCC5)c(Cl)c4)c(Oc4cccc5[nH]ncc45)c3)CC2)=C(c2ccc(Cl)cc2)C1 [Example 464, N-({3-chloro-4-[(4-fluorotetrahydro-2H-pyran-4-yl)methoxy]phenyl}sulfonyl)-4-(4-{[2-(4-chlorophenyl)-4,4-dimethylcyclohex-1-en-1-yl]methyl}piperazin-1-yl)-2-(1H-indazol-4-yloxy)benzamide]
[1]
  Ki: 521 nM
[2]
  Ki: 0.081 nM
[2]; [5]
  Binding selectivity ratio (Bcl-XL Ki/Bcl-2 Ki): 6431.8

## CC1(C)CCC(CN2CCN(c3ccc(C(=O)NS(=O)(=O)c4cnc(OCC5(F)CCN(C6COC6)CC5)c(Cl)c4)c(Oc4cccc5[nH]ncc45)c3)CC2)=C(c2ccc(Cl)cc2)C1 [Example 528, N-[(5-chloro-6-{[4-fluoro-1-(oxetan-3-yl)piperidin-4-yl]methoxy}pyridin-3-yl)sulfonyl]-4-(4-{[2-(4-chlorophenyl)-4,4-dimethylcyclohex-1-en-1-yl]methyl}piperazin-1-yl)-2-(1H-indazol-4-yloxy)benzamide]
[1]
  Ki: 3.67 nM
[2]
  Ki: < 0.01 nM
[2]; [5]
  Binding selectivity ratio (Bcl-XL Ki/Bcl-2 Ki): >366.9

## CC1(C)CCC(CN2CCN(c3ccc(C(=O)NS(=O)(=O)c4cnc(OCC5(F)CCOCC5)c(Cl)c4)c(Oc4cccc5[nH]nnc45)c3)CC2)=C(c2ccc(Cl)cc2)C1 [Example 515, 2-(1H-benzotriazol-4-yloxy)-N-({5-chloro-6-[(4-fluorotetrahydro-2H-pyran-4-yl)methoxy]pyridin-3-yl}sulfonyl)-4-(4-{[2-(4-chlorophenyl)-4,4-dimethylcyclohex-1-en-1-yl]methyl}piperazin-1-yl)benzamide]
[1]
  Ki: 140 nM
[2]
  Ki: < 0.01 nM
[2]; [5]
  Binding selectivity ratio (Bcl-XL Ki/Bcl-2 Ki): >13994.0

## CC1(C)CCC(CN2CCN(c3ccc(C(=O)NS(=O)(=O)c4ccc(NCC5(F)CCOCC5)c([N+](=O)[O-])c4)c(Oc4cccc5[nH]cnc45)c3)CC2)=C(c2ccc(Cl)cc2)C1 [Example 441, 2-(1H-benzimidazol-4-yloxy)-4-(4-{[2-(4-chlorophenyl)-4,4-dimethylcyclohex-1-en-1-yl]methyl}piperazin-1-yl)-N-[(4-{[(4-fluorotetrahydro-2H-pyran-4-yl)methyl]amino}-3-nitrophenyl)sulfonyl]benzamide]
[1]
  Ki: 24.2 nM
[2]
  Ki: < 0.01 nM

## CC1(C)CCC(CN2CCN(c3ccc(C(=O)NS(=O)(=O)c4cnc(OCC5(F)CCC(O)CC5)c(Cl)c4)c(Oc4cccc5[nH]ncc45)c3)CC2)=C(c2ccc(Cl)cc2)C1 (stereo not drawn) [Example 518, N-({5-chloro-6-[(cis-1-fluoro-4-hydroxycyclohexyl)methoxy]pyridin-3-yl}sulfonyl)-4-(4-{[2-(4-chlorophenyl)-4,4-dimethylcyclohex-1-en-1-yl]methyl}piperazin-1-yl)-2-(1H-indazol-4-yloxy)benzamide]
[1]
  Ki: 2.55 nM
[2]
  Ki: < 0.01 nM
[2]; [5]
  Binding selectivity ratio (Bcl-XL Ki/Bcl-2 Ki): >254.6

## CC1(C)CCC(CN2CCN(c3ccc(C(=O)NS(=O)(=O)c4ccc(OCC5CCOCC5)c(Cl)c4)c(Oc4cccc5[nH]cnc45)c3)CC2)=C(c2ccc(Cl)cc2)C1 [Example 516, 2-(1H-benzimidazol-4-yloxy)-4-(4-{[2-(4-chlorophenyl)-4,4-dimethylcyclohex-1-en-1-yl]methyl}piperazin-1-yl)-N-{[3-chloro-4-(tetrahydro-2H-pyran-4-ylmethoxy)phenyl]sulfonyl}benzamide]
[1]
  Ki: 4.82 nM
[2]
  Ki: < 0.01 nM
[2]; [5]
  Binding selectivity ratio (Bcl-XL Ki/Bcl-2 Ki): >482.3

## O=C(NS(=O)(=O)c1ccc(-n2ncc([N+](=O)[O-])n2)cc1)c1ccc(N2CCN(Cc3ccccc3-c3ccc(Cl)cc3)CC2)cc1Oc1ccccc1 [Example 31, 4-{4-[(4′-chloro-1,1′-biphenyl-2-yl)methyl]piperazin-1-yl}-N-{[4-(4-nitro-2H-1,2,3-triazol-2-yl)phenyl]sulfonyl}-2-phenoxybenzamide]
[1]; [3]
  Ki: > 660 nM
[2]; GST-Bcl-2, F-Bak peptide probe
  Ki: 36.6 nM

## CC1(C)CCC(CN2CCN(c3ccc(C(=O)NS(=O)(=O)c4ccc(NCC5CCC(F)(F)CC5)c([N+](=O)[O-])c4)c(Oc4cccc5[nH]cnc45)c3)CC2)=C(c2ccc(Cl)cc2)C1 [Example 456, 2-(1H-benzimidazol-4-yloxy)-4-(4-{[2-(4-chlorophenyl)-4,4-dimethylcyclohex-1-en-1-yl]methyl}piperazin-1-yl)-N-[(4-{[(4,4-difluorocyclohexyl)methyl]amino}-3-nitrophenyl)sulfonyl]benzamide]
[1]
  Ki: 0.54 nM
[2]
  Ki: < 0.01 nM
[2]; [5]
  Binding selectivity ratio (Bcl-XL Ki/Bcl-2 Ki): 54.0

## CC1(C)CCC(CN2CCN(c3ccc(C(=O)NS(=O)(=O)c4ccc(NCC5CN(CC#N)CCO5)c([N+](=O)[O-])c4)c(Oc4cccc5[nH]cnc45)c3)CC2)=C(c2ccc(Cl)cc2)C1 (stereo not drawn) [Example 431, 2-(1H-benzimidazol-4-yloxy)-4-(4-{[2-(4-chlorophenyl)-4,4-dimethylcyclohex-1-en-1-yl]methyl}piperazin-1-yl)-N-{[4-({[4-(cyanomethyl)morpholin-2-yl]methyl}amino)-3-nitrophenyl]sulfonyl}benzamide]
[1]; [3]
  Ki: 6.77 nM
[2]; GST-Bcl-2, F-Bak peptide probe
  Ki: < 0.01 nM
[2]; [4]
  Binding selectivity ratio (Bcl-XL Ki/Bcl-2 Ki): 677.4

From patent US9073855B2, “BCL-2 selective apoptosis-inducing agents for the treatment of cancer and immune diseases” (AbbVie Inc., priority 2008, dated 2015)
